Results taken from patent US20240174624A1, “CHIRAL N-(1,3,4-OXADIAZOLE-2-YL)PHENYL CARBOXYLIC ACID AMIDES AND THEIR USE AS HERBICIDES” (Bayer Aktiengesellschaft, priority 2021, published 2024).

Assays:
[1] = system: ZEAMX; assay: Post-emergence damage to crop plants; format: in vivo, Zea mays; conditions: 80 g a.i./ha, comparative experiment
Protocol: (§1) Seeds of monocotyledonous and dicotyledonous weed and crop plants are laid out in sandy loam soil in wood-fibre pots, covered with soil and cultivated in a greenhouse under good growth conditions. 2 to 3 weeks after sowing, the test plants are treated at the one-leaf stage. The compounds of the invention, formulated in the form of wettable powders (WP) or as emulsion concentrates (EC), are then sprayed onto the green parts of the plants in the form of an aqueous suspension or emulsion at a water application rate equating to 600 to 800 l/ha, with addition of 0.2% wetting agent. After the test plants have been left to stand in the greenhouse under optimal growth conditions for about 3 weeks, the action of the preparations is assessed visually in comparison to untreated controls (herbicidal action in percent (%): 100% activity=the plants have died, 0% activity=like control plants). […] The tables below illustrate, in an illustrative manner, the post-emergence herbicidal action of the compounds of the invention, the herbicidal activity being stated in percent. In the experiments that follow, the herbicidal action of the compounds of the invention and that of the corresponding known racemic compounds closest from WO2012126932 and WO2018202535 were compared under the above-specified conditions by the pre-emergence and post-emergence method. The example numbers given in the tables relate to the compounds disclosed in the respective documents.

[2] = system: TRZAS; assay: Pre-emergence damage to crop plants; format: in vivo, Triticum aestiva; conditions: comparative experiment
Excerpt: (§2) Seeds of monocotyledonous and dicotyledonous weed plants and crop plants are laid out in sandy loam soil in wood-fibre pots and covered with soil. The compounds of the invention, formulated in the form of wettable powders (WP) or as emulsion concentrates (EC), are then applied to the surface of the covering soil in the form of an aqueous suspension or emulsion at a water application rate equivalent to 600 to 800 l/ha, with addition of 0.2% wetting agent. After the treatment, the pots are placed in a greenhouse and kept under good growth conditions for the trial plants. The damage to the test plants is scored visually after a test period of 3 weeks by comparison with untreated controls (herbicidal activity in percent (%): 100% activity=the plants have died, 0% activity=like control plants). […] The tables below illustrate, in an illustrative manner, the post-emergence herbicidal action of the compounds of the invention, the herbicidal activity being stated in percent. In the experiments that follow, the herbicidal action of the compounds of the invention and that of the corresponding known racemic compounds closest from WO2012126932 and WO2018202535 were compared under the above-specified conditions by the pre-emergence and post-emergence method. The example numbers given in the tables relate to the compounds disclosed in the respective documents.

[3] = system: ORYZA; assay: Post-emergence damage to crop plants; format: in vivo, Oryza sativa; conditions: comparative experiment
Protocol: as §1

[4] = system: ZEAMX; assay: Pre-emergence damage to crop plants; format: in vivo, Zea mays; conditions: 320 g a.i./ha, comparative experiment
Excerpt: as §2

[5] = system: TRZAS; assay: Post-emergence damage to crop plants; format: in vivo, Triticum aestiva; conditions: 80 g a.i./ha, comparative experiment
Protocol: as §1

[6] = system: ORYZA; assay: Pre-emergence damage to crop plants; format: in vivo, Oryza sativa; conditions: 80 g a.i./ha, comparative experiment
Excerpt: as §2

[7] = system: SETVI; assay: Pre-emergence herbicidal action; format: in vivo, Setaria viridis; conditions: scored after 3 weeks
Excerpt: as §2

[8] = system: POLCO; assay: Pre-emergence herbicidal action; format: in vivo, Polygonum convolvulus; conditions: 80 g/ha, scored after 3 weeks
Excerpt: as §2

[9] = system: ECHCG; assay: Post-emergence herbicidal action; format: in vivo, Echinochloa crus-galli; conditions: for Post-emergence action against ECHCG: assessed after about 3 weeks
Protocol: as §1

[10] = system: GLXMA; assay: Pre-emergence damage to crop plants; format: in vivo, Glycine max; conditions: 80 g a.i./ha, comparative experiment
Excerpt: as §2

[11] = system: VIOTR; assay: Pre-emergence herbicidal action; format: in vivo, Viola tricolor; conditions: scored after 3 weeks
Excerpt: as §2, with “percent.” for “percent. In the experiments that follow, the herbicidal action of the compounds of the invention and that of the corresponding known racemic compounds closest from WO2012126932 and WO2018202535 were compared under the above-specified conditions by the pre-emergence and post-emergence method. The example numbers given in the tables relate to the compounds disclosed in the respective documents.”

[12] = system: SETVI; assay: Post-emergence herbicidal action; format: in vivo, Setaria viridis; conditions: assessed after about 3 weeks
Protocol: as §1

[13] = system: PHBPU; assay: Post-emergence herbicidal action; format: in vivo, Pharbitis purpurea; conditions: 20 g/ha, assessed after about 3 weeks
Protocol: as §1, with “percent.” for “percent. In the experiments that follow, the herbicidal action of the compounds of the invention and that of the corresponding known racemic compounds closest from WO2012126932 and WO2018202535 were compared under the above-specified conditions by the pre-emergence and post-emergence method. The example numbers given in the tables relate to the compounds disclosed in the respective documents.”

[14] = system: MATIN; assay: Pre-emergence herbicidal action; format: in vivo, Matricaria inodora; conditions: scored after 3 weeks
Excerpt: as §2

[15] = system: MATIN; assay: Post-emergence herbicidal action; format: in vivo, Matricaria inodora; conditions: assessed after about 3 weeks
Protocol: as §1, with “percent.” for “percent. In the experiments that follow, the herbicidal action of the compounds of the invention and that of the corresponding known racemic compounds closest from WO2012126932 and WO2018202535 were compared under the above-specified conditions by the pre-emergence and post-emergence method. The example numbers given in the tables relate to the compounds disclosed in the respective documents.”

[16] = system: VERPE; assay: Pre-emergence herbicidal action; format: in vivo, Veronica persica; conditions: scored after 3 weeks
Excerpt: as §2

[17] = system: AMARE; assay: Pre-emergence herbicidal action; format: in vivo, Amaranthus retroflexus; conditions: scored after 3 weeks
Excerpt: as §2, with “percent.” for “percent. In the experiments that follow, the herbicidal action of the compounds of the invention and that of the corresponding known racemic compounds closest from WO2012126932 and WO2018202535 were compared under the above-specified conditions by the pre-emergence and post-emergence method. The example numbers given in the tables relate to the compounds disclosed in the respective documents.”

[18] = system: VIOTR; assay: Post-emergence herbicidal action; format: in vivo, Viola tricolor; conditions: assessed after about 3 weeks
Protocol: as §1

[19] = system: VERPE; assay: Post-emergence herbicidal action; format: in vivo, Veronica persica; conditions: assessed after about 3 weeks
Protocol: as §1

[20] = system: ECHCG; assay: Pre-emergence herbicidal action; format: in vivo, Echinochloa crus-galli; conditions: scored after 3 weeks
Excerpt: as §2, with “percent.” for “percent. In the experiments that follow, the herbicidal action of the compounds of the invention and that of the corresponding known racemic compounds closest from WO2012126932 and WO2018202535 were compared under the above-specified conditions by the pre-emergence and post-emergence method. The example numbers given in the tables relate to the compounds disclosed in the respective documents.”

[21] = system: LOLRI; assay: Pre-emergence herbicidal action; format: in vivo, Lolium rigidum; conditions: 80 g/ha, scored after 3 weeks
Excerpt: as §2

[22] = system: ALOMY; assay: Pre-emergence herbicidal action; format: in vivo, Alopecurus myosuroides; conditions: 80 g/ha, scored after 3 weeks
Excerpt: as §2

[23] = system: AVEFA; assay: Pre-emergence herbicidal action; format: in vivo, Avena fatua; conditions: 80 g/ha, scored after 3 weeks
Excerpt: as §2

[24] = system: AMARE; assay: Post-emergence herbicidal action; format: in vivo, Amaranthus retroflexus; conditions: assessed after about 3 weeks
Protocol: as §1, with “percent.” for “percent. In the experiments that follow, the herbicidal action of the compounds of the invention and that of the corresponding known racemic compounds closest from WO2012126932 and WO2018202535 were compared under the above-specified conditions by the pre-emergence and post-emergence method. The example numbers given in the tables relate to the compounds disclosed in the respective documents.”

[25] = system: POLCO; assay: Post-emergence herbicidal action; format: in vivo, Polygonum convolvulus; conditions: 20 g/ha, assessed after about 3 weeks
Protocol: as §1, with “percent.” for “percent. In the experiments that follow, the herbicidal action of the compounds of the invention and that of the corresponding known racemic compounds closest from WO2012126932 and WO2018202535 were compared under the above-specified conditions by the pre-emergence and post-emergence method. The example numbers given in the tables relate to the compounds disclosed in the respective documents.”

C[S+]([O-])c1c(C(F)(F)F)ccc(C(=O)Nc2nnco2)c1Cl (racemic) [1-360, from WO2012126932, 2-chloro-N-(1,3,4-oxadiazol-2-yl)-3-[(rac)-methylsulfinyl]-4-(trifluoromethyl)benzamide, reference compound]
Damage to ZEAMX [1]: 20% | Damage to TRZAS ([2]; 80 g a.i./ha): 80% | Damage to ORYZA ([3]; 80 g a.i./ha): 100% | Damage to ZEAMX [4]: 20% | Damage to TRZAS [5]: 100% | Damage to ORYZA [6]: 100%

C[S+]([O-])c1c(C(F)F)ccc(C(=O)Nc2nnco2)c1Cl (stereo in doubt) [Example I-2, 2-chloro-N-(1,3,4-oxadiazol-2-yl)-3-[(S)-methylsulfinyl]-4-(difluoromethyl)benzamide]
Pre-emergence action against SETVI ([7]; 20 g/ha): 100% | Pre-emergence action against SETVI ([7]; 80 g/ha): 100% | Pre-emergence action against POLCO [8]: 90% | Herbicidal action against ECHCG ([9]; 5 g a.i./ha, comparative experiment): 90% | Post-emergence action against ECHCG ([9]; 5 g/ha): 90% | Post-emergence action against ECHCG ([9]; 20 g/ha): 90% | Damage to GLXMA [10]: 30% | Pre-emergence action against VIOTR ([11]; 20 g/ha): 100% | Pre-emergence action against VIOTR ([11]; 80 g/ha): 100% | Post-emergence action against SETVI ([12]; 5 g/ha): 90% | Post-emergence action against SETVI ([12]; 20 g/ha): 90% | Post-emergence action against PHBPU [13]: 90% | Pre-emergence action against MATIN ([14]; 20 g/ha): 100% | Pre-emergence action against MATIN ([14]; 80 g/ha): 100% | Damage to TRZAS ([2]; 20 g a.i./ha): 20% | Damage to TRZAS ([2]; 80 g a.i./ha): 70% | Damage to ORYZA ([3]; 5 g a.i./ha): 0% | Post-emergence action against MATIN ([15]; 5 g/ha): 90% | Post-emergence action against MATIN ([15]; 20 g/ha): 90% | Pre-emergence action against VERPE ([16]; 20 g/ha): 80% | Pre-emergence action against VERPE ([16]; 80 g/ha): 80% | Pre-emergence action against AMARE ([17]; 20 g/ha): 100% | Pre-emergence action against AMARE ([17]; 80 g/ha): 100% | Post-emergence action against VIOTR ([18]; 5 g/ha): 90% | Post-emergence action against VIOTR ([18]; 20 g/ha): 100% | Post-emergence action against VERPE ([19]; 5 g/ha): 90% | Post-emergence action against VERPE ([19]; 20 g/ha): 100% | Pre-emergence action against ECHCG ([20]; 20 g/ha): 100% | Pre-emergence action against ECHCG ([20]; 80 g/ha): 100% | Pre-emergence action against LOLRI [21]: 90% | Pre-emergence action against ALOMY [22]: 90% | Pre-emergence action against AVEFA [23]: 100% | Post-emergence action against AMARE ([24]; 5 g/ha): 100% | Post-emergence action against AMARE ([24]; 20 g/ha): 100% | Post-emergence action against POLCO [25]: 80%
